Active and inactive are the calls of the source. How the calls were made is not given here.
biological target: Bcl-2-related protein A1 (Homo sapiens) (UniProt Q16548); test: inhibitors of Bim binding to Bfl-1, dose response, biochemical, multiplexed, bead-based flow cytometry (AID 1320); conditions: Bim peptide-Bfl-1 binding, fluorescence; further: test concentration not given here
Sequence (Q16548 whole entry, looked up): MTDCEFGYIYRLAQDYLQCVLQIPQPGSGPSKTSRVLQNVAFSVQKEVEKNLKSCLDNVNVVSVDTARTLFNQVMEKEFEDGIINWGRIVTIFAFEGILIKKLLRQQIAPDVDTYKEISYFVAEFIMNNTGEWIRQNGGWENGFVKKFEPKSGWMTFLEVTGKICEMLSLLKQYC

Compound	percent span (inhibition)
Cc1cc(C)c(C)c(S(=O)(=O)N2CCN(CC(=O)NC(=O)NCc3ccccc3)CC2)c1C	inactive
Cc1ccc(/C=N/N(C)C2=NS(=O)(=O)c3ccccc32)o1	inactive
COc1c(F)c(F)c(C(=O)Nc2ccccc2N2CCN(C(=O)C(C)C)CC2)c(F)c1F	inactive
CC(C)(C)c1nc(NCCN2CCOCC2)c2nnn(Cc3ccccc3Cl)c2n1	inactive
